Data on five compounds can be found in patent publication US10676462B2, “Quinoline derivative” (ONO PHARMACEUTICAL CO., LTD., priority 2013, dated 2020).

One experiment addresses T1, Axl enzyme (Homo sapiens, UniProt P30530).
T1 construct: a solution containing 400 ng/mL Axl enzyme was prepared
T1 sequence (P30530 26-894): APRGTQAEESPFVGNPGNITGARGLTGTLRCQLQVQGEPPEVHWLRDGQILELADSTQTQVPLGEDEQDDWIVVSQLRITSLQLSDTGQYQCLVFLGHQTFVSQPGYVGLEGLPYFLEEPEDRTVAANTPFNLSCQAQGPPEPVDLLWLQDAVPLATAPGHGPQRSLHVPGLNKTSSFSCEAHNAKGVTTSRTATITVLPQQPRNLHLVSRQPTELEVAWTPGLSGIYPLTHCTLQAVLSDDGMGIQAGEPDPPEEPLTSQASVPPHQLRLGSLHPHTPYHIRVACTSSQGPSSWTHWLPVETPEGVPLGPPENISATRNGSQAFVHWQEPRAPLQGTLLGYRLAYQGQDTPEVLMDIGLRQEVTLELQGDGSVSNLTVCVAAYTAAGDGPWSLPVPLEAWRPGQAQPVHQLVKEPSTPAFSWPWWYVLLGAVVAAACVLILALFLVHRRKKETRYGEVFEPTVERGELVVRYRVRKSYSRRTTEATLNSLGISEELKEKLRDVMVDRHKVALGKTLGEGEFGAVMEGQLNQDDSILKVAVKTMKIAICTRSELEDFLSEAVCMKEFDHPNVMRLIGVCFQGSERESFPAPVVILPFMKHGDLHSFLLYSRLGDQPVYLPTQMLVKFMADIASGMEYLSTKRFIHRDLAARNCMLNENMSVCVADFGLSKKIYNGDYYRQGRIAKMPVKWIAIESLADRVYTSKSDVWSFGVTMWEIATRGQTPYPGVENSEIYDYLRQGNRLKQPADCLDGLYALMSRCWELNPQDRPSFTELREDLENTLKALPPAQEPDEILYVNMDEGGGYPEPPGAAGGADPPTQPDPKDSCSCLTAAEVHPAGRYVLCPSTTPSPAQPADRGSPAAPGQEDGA
Kind of experiment: Measurement of an Axl inhibitory activity (LanthaScreen TR-FRET, in vitro test). In kind it is biochemical. The protocol: Biological Example 1: Measurement of an Axl Inhibitory Activity (In Vitro Test)
An Axl enzyme inhibitory activity was measured by using LanthaScreen (registered trademark) system (Invitrogen) based on the attached instruction. The reagents used are shown below.
Reaction buffer solution: a solution containing 50 mmol/L HEPES (pH7.5), 0.01% Brij35, 10 mmol/L MgCl2 and 1 mmol/L EGTA was prepared by using purified water.
Test substance solution: a solution containing a test compound of 5-fold concentration with respect to the final concentration was prepared by 20-fold diluting a DMSO solution of test compound of each concentration with the reaction buffer solution.
Enzyme solution: a solution containing 400 ng/mL Axl enzyme was prepared by using the reaction buffer solution.
Substrate solution: a solution containing 45 μmmol/L ATP and 500 nmmol/L Fluorescein-Poly GT (Invitrogen) was prepared by using the reaction buffer solution.
Detection solution: a solution containing 20 mM EDTA and 4 nM PY20 (Invitrogen) was prepared by using Dilution B (Invitrogen).
A 10 mmol/L DMSO solution of the test compound was dispensed into a 96-well plate (Nunc), and, furthermore, a 3-fold dilution series was prepared using DMSO. In each well of the 96-well plate for measurement, 5 μL each of the reaction buffer solution containing DMSO was added to a Blank group and a medium group, and 5 μL of the test substance solution was added to the test substance group, respectively. Next, 10 μL/well of the reaction buffer solution was added to the Blank group, and 10 μL/well each of the enzyme solution was added to the medium group and the test compound group, followed by stirring at room temperature for 10 min. After the completion of stirring, 10 μL each of the substrate solution was added into each well, followed by stirring at room temperature with light shielded for one hour. After the completion of reaction, 25 μL each of the detection solution was added to each well, and stood still at room temperature with light shielded for 30 min. After standing sill, fluorescence intensity at 520 nm and 495 nm at the time of irradiation with exciting light of 340 nm was measured by using Analyst GT (Molecular Devices). The phosphorylation of the artificial substrate was quantified by Time-resolved Fluorescence Resonance Energy Transfer (TR-FRET). TR-FRET ratio was calculated by dividing 520 nm fluorescence signal by 495 nm fluorescence signal for each well, and the inhibition rate (%) in the test compound group was calculated based on the following mathematical formula. Inhibition rate (%)=[1−(TR-FRET ratio of test compound group−A)/(B−A)×100 [Math. 1] A: average value of TR-FRET ratios of Blank group B: average value of TR-FRET ratios of medium group
Values of 50% inhibition rate (IC50 values) of the test compound were calculated from the inhibition curve based on the inhibition rate of the test compounds in each concentration.
A general note: In TR-FRET formats the signal depends on donor and acceptor labels being close together.

The next experiment deals with T2, Ba/F3 Axl (Homo sapiens, UniProt P30530).
T2 sequence (P30530 1-894): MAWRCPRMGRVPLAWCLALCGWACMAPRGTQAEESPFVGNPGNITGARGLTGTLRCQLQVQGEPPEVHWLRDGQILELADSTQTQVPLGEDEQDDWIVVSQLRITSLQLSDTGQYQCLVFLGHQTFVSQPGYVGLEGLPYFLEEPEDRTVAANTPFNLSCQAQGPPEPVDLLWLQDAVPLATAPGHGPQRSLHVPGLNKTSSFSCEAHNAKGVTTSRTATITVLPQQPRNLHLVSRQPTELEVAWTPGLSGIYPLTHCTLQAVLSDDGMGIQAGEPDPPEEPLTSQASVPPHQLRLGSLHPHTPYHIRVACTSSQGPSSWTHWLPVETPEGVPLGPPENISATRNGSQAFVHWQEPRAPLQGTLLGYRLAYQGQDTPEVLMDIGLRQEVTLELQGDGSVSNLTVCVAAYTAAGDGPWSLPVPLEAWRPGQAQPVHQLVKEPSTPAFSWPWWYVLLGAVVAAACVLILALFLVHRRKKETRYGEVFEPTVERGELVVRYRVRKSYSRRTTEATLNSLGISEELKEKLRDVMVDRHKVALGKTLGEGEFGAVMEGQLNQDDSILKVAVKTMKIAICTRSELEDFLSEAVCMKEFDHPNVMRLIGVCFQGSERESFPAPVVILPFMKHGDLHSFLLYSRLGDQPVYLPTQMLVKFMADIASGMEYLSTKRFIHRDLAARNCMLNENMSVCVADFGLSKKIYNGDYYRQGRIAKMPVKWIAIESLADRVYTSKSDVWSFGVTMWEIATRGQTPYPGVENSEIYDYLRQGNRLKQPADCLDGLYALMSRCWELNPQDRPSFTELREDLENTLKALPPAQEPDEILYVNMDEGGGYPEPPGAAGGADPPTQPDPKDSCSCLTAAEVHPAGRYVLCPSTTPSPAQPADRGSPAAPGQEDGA
Kind of experiment: Proliferation suppression rate using mouse pro-B cell line (Ba/F3 Axl) stably expressing Axl. In kind it is cell-based. The settings on record: Ba/F3 Axl cells, 48 hours, CellTiter-Glo; read-out: IC50 value, proliferation suppression of Ba/F3 Axl. The protocol: Biological Example 2: Measurement of Proliferation Suppression Rate by Using Mouse Pro-B Cell Line (Ba/F3 Axl) Stably Expressing Axl
A 0.1 mmol/L DMSO solution of the test compound was dispensed into a 96-well plate, and a 3-fold dilution series was prepared using DMSO. DMSO solutions of test compounds, having various concentrations, were further 500-fold diluted with a RPMI1640 medium (containing 10% HI-FBS, 1% penicillin) and a diluted solution of the test compound having […] with respect to the final concentration was prepared. In each well of the 96-well plate (BD Biosciences) for measurement, 50 μL of a RPMI medium was added to the Blank group, 50 μL of a RPMI medium containing 0.2% DMSO was added to the medium group, and 50 μL of the diluted solution of the test compound was added to the test compound group, respectively. Ba/F3 Axl was diluted with a medium to have a density of 2×10^5 cells/mL to prepare a cell suspension. In each well of the 96-well plate for measurement, 50 μL each of the RPMI medium was added to the Blank group, and 50 μL each of the cell suspension to the medium group and the test compound group, respectively, and the groups were stood still at 37° C. at 5% CO2 for 48 hours. After standing still, Relative Light Unit (RLU) was measured by using CELLTITER-GLO (registered trademark) LUMINESCENT CELL VIABILITY ASSAY (Promega). The measurement was carried out according to the attached instruction. To each well, 100 μL each of light-emitting solution was added. The plate was stirred at room temperature for 3 min and then stool still at room temperature with light shielded for 10 min, and RLU was measured by using Microplate Reader (SpectraMax M5e, Molecular Devices). The average values of RLU of the Blank group and the medium group were respectively calculated, and the proliferation suppression rate of the test compound group was calculated. Proliferation suppression rate (%)={1−(RLU of test compound group−A)/(B−A)}×100 [Math. 2] A: average value of RLU of Blank group B: average value of RLU of medium group
A value of 50% inhibition rate (IC50 value) of the test compound was calculated from the inhibition curve based on the inhibition rate in each concentration of the test compound.

The target of a further experiment is KDR (Homo sapiens, UniProt P35968). Kind of experiment: Evaluation of kinase selectivity (in vitro test), KDR. Type of experiment: biochemical. The settings on record: Axl selective inhibitory activity with respect to KDR, ratio of IC50 values. The protocol:
Biological Example 3: Evaluation of Kinase Selectivity (In Vitro Test)
Similar to Biological Example 1, values of 50% inhibition rate (IC50 value) with respect to various kinases (KDR, DDR1, FLT4, and ROS) of the test compound were measured. The Axl selective inhibitory activity of the test compound with respect to kinases, for example, KDR, was calculated based on the above-mentioned ratio of the IC50 values. As the test compound, for the compound of the present invention, the compounds of Examples 5, 5(1), 17(2), and 23(2) were used, and for the comparative compounds, the compound of Example 5 (Comparative compound C) and the compound of Example 92 (Comparative compound D) described in Patent Literature 5, having the following structure, were used.

Chain of KDR (P35968 20-1356): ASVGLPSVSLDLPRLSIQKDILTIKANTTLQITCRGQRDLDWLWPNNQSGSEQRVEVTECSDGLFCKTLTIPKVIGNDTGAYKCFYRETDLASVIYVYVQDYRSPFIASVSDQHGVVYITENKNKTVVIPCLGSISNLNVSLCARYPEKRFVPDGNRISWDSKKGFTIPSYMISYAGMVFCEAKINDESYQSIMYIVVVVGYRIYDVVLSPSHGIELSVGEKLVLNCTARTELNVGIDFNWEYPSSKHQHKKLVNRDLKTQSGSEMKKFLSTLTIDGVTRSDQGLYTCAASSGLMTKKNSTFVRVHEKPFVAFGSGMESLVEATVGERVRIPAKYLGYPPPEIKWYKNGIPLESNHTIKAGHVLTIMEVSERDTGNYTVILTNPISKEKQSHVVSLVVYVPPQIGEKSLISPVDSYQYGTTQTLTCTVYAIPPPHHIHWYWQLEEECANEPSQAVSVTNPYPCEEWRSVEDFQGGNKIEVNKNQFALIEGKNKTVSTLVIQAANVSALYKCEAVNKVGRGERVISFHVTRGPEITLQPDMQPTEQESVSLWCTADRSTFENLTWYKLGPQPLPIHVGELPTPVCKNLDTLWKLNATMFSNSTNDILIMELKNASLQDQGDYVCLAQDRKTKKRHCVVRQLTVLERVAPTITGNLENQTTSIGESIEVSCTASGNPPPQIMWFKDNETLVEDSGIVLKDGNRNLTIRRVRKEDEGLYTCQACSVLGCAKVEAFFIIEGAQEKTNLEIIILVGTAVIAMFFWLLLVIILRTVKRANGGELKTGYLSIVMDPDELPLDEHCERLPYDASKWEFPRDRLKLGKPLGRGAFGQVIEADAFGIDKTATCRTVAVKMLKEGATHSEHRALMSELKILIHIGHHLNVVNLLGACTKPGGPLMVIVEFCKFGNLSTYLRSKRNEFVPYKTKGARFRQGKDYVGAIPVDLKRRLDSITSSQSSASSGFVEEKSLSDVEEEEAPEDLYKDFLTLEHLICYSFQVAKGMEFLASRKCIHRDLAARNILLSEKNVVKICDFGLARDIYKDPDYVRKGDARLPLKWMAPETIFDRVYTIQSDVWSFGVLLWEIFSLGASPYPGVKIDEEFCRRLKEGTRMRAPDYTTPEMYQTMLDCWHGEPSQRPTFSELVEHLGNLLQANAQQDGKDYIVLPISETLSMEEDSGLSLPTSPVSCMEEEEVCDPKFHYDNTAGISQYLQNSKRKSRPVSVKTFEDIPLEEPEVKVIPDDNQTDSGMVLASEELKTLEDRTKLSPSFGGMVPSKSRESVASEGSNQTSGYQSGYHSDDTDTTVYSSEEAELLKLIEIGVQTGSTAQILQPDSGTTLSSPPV

In general, IC50 refers to the midpoint of a concentration-inhibition curve. Read a high IC50 as weaker potency. As to `COc1cc2nccc(Oc3ccc(NC(=O)c4cc5c(n(CC(C)(C)C)c4=O)CCCC5=O)nc3)c2cc1OC` [Example 5(6), N-{5-[(6,7-dimethoxy-4-quinolinyl)oxy]-2-pyridinyl}-1-(2,2-dimethylpropyl)-2,5-dioxo-1,2,5,6,7,8-hexahydro-3-quinolinecarboxamide], the IC50 against Axl enzyme amounted to 0.0043 µM. Besides, the GI50 at Ba/F3 Axl came to 7.8 nM.
In turn, `COc1cc2nccc(Oc3ccc(NC(=O)c4cc5ccccc5[nH]c4=O)cc3)c2cc1OC` [Comparative compound B, reference compound] registered an IC50 against Axl enzyme of over 10 µM. The GI50 on Ba/F3 Axl is over 10000 nM.
Taken in the same sequence, the figures for `COc1cc2nccc(Oc3ccc(NC(=O)c4nn(C)c5ccccc45)cc3F)c2cc1OC` [Comparative compound A, reference compound] were over 10 µM and 620 nM.
Consider `COc1cc2c(Oc3ccc(NC(=O)c4ccnn(-c5ccc(F)cc5)c4=O)cn3)ccnc2cc1OCCCN1CCOCC1` [Comparative compound D, reference compound], for which the “KDR [IC50]/Axl [IC50]” value at KDR is reported as “about 28 times”.
Consider `COc1cc2c(Oc3ccc(NC(=O)c4cccc5cccnc45)cc3F)ccnc2cc1OCCCN1CCOCC1` [Comparative compound C, reference compound], for which, at KDR, the “KDR [IC50]/Axl [IC50]” value is “about 0.2 times”.
